Laboratory results published in ChEMBL document CHEMBL5321247, “Discovery of NXT-10796, an orally active, intestinally restricted EP4 agonist prodrug for the treatment of inflammatory bowel disease” (Bioorg Med Chem Lett, 2023).
Activity calls are given as the source filed them. No cut-off for these calls is given here.

Key:
[1] = Drug uptake in BALB/c mouse Colon at 1 mg/kg, po measured at 24 hrs; type: ADME, organism-based; conditions: in vivo
[2] = Drug uptake in BALB/c mouse plasma at 1 mg/kg, po or iv; type: ADME, organism-based; conditions: in vivo
[3] = Drug uptake in BALB/c mouse Feces at 1 mg/kg, po measured at 24 hrs; type: ADME, organism-based; conditions: in vivo
[4] = Drug uptake in BALB/c mouse Colon at 1 mg/kg, po; type: ADME, organism-based; conditions: in vivo
[5] = Oral bioavailability in BALB/c mouse at 1 mg/kg measured at 24 hrs; type: ADME, organism-based; conditions: in vivo
[6] = Drug uptake in BALB/c mouse Feces at 1 mg/kg, po; type: ADME, organism-based; conditions: in vivo
[7] = Cmax in BALB/c mouse plasma at 1 mg/kg, po or iv measured at 24 hrs; type: ADME, organism-based; set-up: dose 1 mg/kg, time 24 hrs, route po
[8] = In vivo agonist activity at EP4 in po dosed C57BL/6J mouse assessed as increase in Ccl5 expression in colon administered for 3 days by qPCR analysis; type: organism-based; conditions: 72 h, dose 1-5 mg/kg, time 3 day
[9] = system: Mus musculus; assay: In vivo agonist activity at EP4 in po dosed C57BL/6J mouse assessed as increase in renin level in plasma at 10 mg/kg, po measured after 2 hrs; type: functional, organism-based

Compound: O=C(CCCCCCN1C(=O)CC[C@@H]1/C=C/[C@@H](O)Cc1ccccc1)NS(=O)(=O)c1ccccc1
- Drug uptake [1]: Active
- Drug uptake [2]: Not Active
- Drug uptake [3]: Active

Compound: O=C(O)CCCCCCN1C(=O)CC[C@@H]1/C=C/[C@@H](O)Cc1ccccc1
- Drug uptake [4]: Active
- Drug uptake [1]: Active
- bioavailability [5]: 3%
- Drug uptake [3]: Active
- Drug uptake [6]: Active
- Cmax [7]: ~50 nM

Compound: O=C(CCCCCCN1C(=O)CC[C@@H]1/C=C/[C@@H](O)Cc1ccccc1)NNC(=O)C(=O)O
- Activity [8]: Dose-Dependent Effect
- Activity [9]: inactive
